Test results: paper PMC10033419, “Blocking NS3–NS4B interaction inhibits dengue virus in non-human primates” (Nature, 2023)
Values joined by “and” are separate entries in the source; they are usually repeats but may differ in a detail not shown here. Equal entries are not always repeated.

Assays:
Experiment in all cases: Viraemia/survival study
Type in all cases: in vivo, AG129 mice
DENV-4/703/4 = conditions: for Viral RNA copies/mL [Log10]: Fig. 2k Viraemia DENV-4, BID, individual animals 1-5, LOD is 1.7
Description: (§1) The UTMB is an Association for the Assessment and Accreditation of Laboratory and Care (AAALAC) International accredited facility. All of the procedures were reviewed and approved by the UTMB Institutional Animal Care and Use Committee. […] Male and female AG129 mice (n = 10 per group; aged 6–8 weeks) were housed at a maximum of 5 mice per cage in individually ventilated cages with food and water provided ad libitum. Allocation to experimental groups was performed randomly. […] Approximately 1 h after the first treatment, all of the animals were challenged by i.p. injection with 10^7 PFU DENV-1/West Pac, DENV-3/C0360/94 or DENV-4/703/4. Pretreatment with anti-flavivirus antibody 4G2 to increase disease severity by induction of ADE was not required as infection with DENV-1/West Pac, DENV-3/C0360/94 or DENV-4/703/4 in our models leads to severe disease (requiring euthanasia after >20% loss of body weight). Each treatment group was subdivided into two smaller groups (groups A and B; n = 5 each). Blood was collected on day 3 after infection from group A to measure viral RNA; samples were collected by retro-orbital bleed on day 3 after infection around 30 min before the morning treatment. In parallel, animals (groups A and B) were followed for lethality throughout the experiment. Viral RNA isolation from plasma and RT–qPCR analysis was performed using the methods described previously.
(§2) For the viral kinetics studies and the delayed-treatment studies, a batch approach was applied to calculate the viral load AUC using the PΚ R package. This package estimates a mean AUC value for settings in which the animals are measured at varying timepoints within a treatment group. […] The AUC was calculated using the LOD (2.6 log10 copies per ml) as the lowest limit. […] In the delayed-treatment studies, the total viral load AUC for each of the compound-treated groups was calculated and compared with that of the vehicle-treated group. […] P values were adjusted using the Bonferroni multiple-comparison correction method. Note that P values lower than 0.0001 were rounded to 0.0001. For survival studies of DENV-1-, DENV-3- or DENV-4-infected mice, Fisher’s exact tests were used on day 6. P values were adjusted using the Bonferroni multiple-comparison correction method.

DENV-3/C0360/94 = conditions: for Viral RNA copies/mL [Log10]: Fig. 2j Viraemia DENV-3, BID, individual animals 1-5, LOD is 1.7
Description: as §1, §2

DENV-1/West Pac = conditions: for Viral RNA copies/mL [Log10]: Fig. 2i Viraemia DENV-1, BID, individual animals 1-5, LOD is 1.7
Description: as §1, §2

[1] = 60 or 6 mg per kg per day b.i.d.
[2] = 60 or 6 mg per kg per day b.i.d., vehicle 0%

## COc1cc(N[C@H](C(=O)c2c[nH]c3ccc(OC(F)(F)F)cc23)c2ccc(Cl)cc2OC)cc(S(C)(=O)=O)c1 [JNJ-1802]
DENV-4/703/4; [1]
  viral RNA load day 3 vs vehicle: significantly reduced
DENV-4/703/4; [2]
  survival until day 6: 100%
DENV-4/703/4; DENV-4, 6 mg/kg/day BID, day 0 post-infection
  Survival [%]: 100%
DENV-4/703/4; DENV-4, 6 mg/kg/day BID, day 1 post-infection
  Survival [%]: 100%
DENV-4/703/4; DENV-4, 6 mg/kg/day BID, day 2 post-infection
  Survival [%]: 100%
DENV-4/703/4; DENV-4, 6 mg/kg/day BID, day 3 post-infection
  Survival [%]: 100%
DENV-4/703/4; DENV-4, 6 mg/kg/day BID, day 4 post-infection
  Survival [%]: 100%
DENV-4/703/4; DENV-4, 6 mg/kg/day BID, day 5 post-infection
  Survival [%]: 100%
DENV-4/703/4; DENV-4, 6 mg/kg/day BID, day 6 post-infection
  Survival [%]: 100%
DENV-4/703/4; DENV-4, 60 mg/kg/day BID, day 0 post-infection
  Survival [%]: 100%
DENV-4/703/4; DENV-4, 60 mg/kg/day BID, day 1 post-infection
  Survival [%]: 100%
DENV-4/703/4; DENV-4, 60 mg/kg/day BID, day 2 post-infection
  Survival [%]: 100%
DENV-4/703/4; DENV-4, 60 mg/kg/day BID, day 3 post-infection
  Survival [%]: 100%
DENV-4/703/4; DENV-4, 60 mg/kg/day BID, day 4 post-infection
  Survival [%]: 100%
DENV-4/703/4; DENV-4, 60 mg/kg/day BID, day 5 post-infection
  Survival [%]: 100%
DENV-4/703/4; DENV-4, 60 mg/kg/day BID, day 6 post-infection
  Survival [%]: 100%
DENV-4/703/4; 6 mg/kg/day
  Viral RNA copies/mL [Log10]: 1.7 copies/mL [Log10] and 4.048 copies/mL [Log10] and 3.88 copies/mL [Log10]
DENV-4/703/4; 60 mg/kg/day
  Viral RNA copies/mL [Log10]: 1.7 copies/mL [Log10]
DENV-3/C0360/94; [1]
  viral RNA load day 3 vs vehicle: significantly reduced
DENV-3/C0360/94; [2]
  survival until day 6: 100%
DENV-3/C0360/94; DENV-3, 6 mg/kg/day BID, day 0 post-infection
  Survival [%]: 100%
DENV-3/C0360/94; DENV-3, 6 mg/kg/day BID, day 1 post-infection
  Survival [%]: 100%
DENV-3/C0360/94; DENV-3, 6 mg/kg/day BID, day 2 post-infection
  Survival [%]: 100%
DENV-3/C0360/94; DENV-3, 6 mg/kg/day BID, day 3 post-infection
  Survival [%]: 100%
DENV-3/C0360/94; DENV-3, 6 mg/kg/day BID, day 4 post-infection
  Survival [%]: 100%
DENV-3/C0360/94; DENV-3, 6 mg/kg/day BID, day 5 post-infection
  Survival [%]: 100%
DENV-3/C0360/94; DENV-3, 6 mg/kg/day BID, day 6 post-infection
  Survival [%]: 100%
DENV-3/C0360/94; DENV-3, 60 mg/kg/day BID, day 0 post-infection
  Survival [%]: 100%
DENV-3/C0360/94; DENV-3, 60 mg/kg/day BID, day 1 post-infection
  Survival [%]: 100%
DENV-3/C0360/94; DENV-3, 60 mg/kg/day BID, day 2 post-infection
  Survival [%]: 100%
DENV-3/C0360/94; DENV-3, 60 mg/kg/day BID, day 3 post-infection
  Survival [%]: 100%
DENV-3/C0360/94; DENV-3, 60 mg/kg/day BID, day 4 post-infection
  Survival [%]: 100%
DENV-3/C0360/94; DENV-3, 60 mg/kg/day BID, day 5 post-infection
  Survival [%]: 100%
DENV-3/C0360/94; DENV-3, 60 mg/kg/day BID, day 6 post-infection
  Survival [%]: 100%
DENV-3/C0360/94; 6 mg/kg/day
  Viral RNA copies/mL [Log10]: 1.7 copies/mL [Log10] and 2.037 copies/mL [Log10] and 2.373 copies/mL [Log10]
DENV-3/C0360/94; 60 mg/kg/day
  Viral RNA copies/mL [Log10]: 1.7 copies/mL [Log10]
DENV-1/West Pac; [1]
  viral RNA load day 3 vs vehicle: significantly reduced
DENV-1/West Pac; 60 or 6 mg per kg per day b.i.d., vehicle 20%
  survival until day 6: 100%
DENV-1/West Pac; DENV-1, 6 mg/kg/day BID, day 0 post-infection
  Survival [%]: 100%
DENV-1/West Pac; DENV-1, 6 mg/kg/day BID, day 1 post-infection
  Survival [%]: 100%
DENV-1/West Pac; DENV-1, 6 mg/kg/day BID, day 2 post-infection
  Survival [%]: 100%
DENV-1/West Pac; DENV-1, 6 mg/kg/day BID, day 3 post-infection
  Survival [%]: 100%
DENV-1/West Pac; DENV-1, 6 mg/kg/day BID, day 4 post-infection
  Survival [%]: 100%
DENV-1/West Pac; DENV-1, 6 mg/kg/day BID, day 5 post-infection
  Survival [%]: 100%
DENV-1/West Pac; DENV-1, 6 mg/kg/day BID, day 6 post-infection
  Survival [%]: 100%
DENV-1/West Pac; DENV-1, 60 mg/kg/day BID, day 0 post-infection
  Survival [%]: 100%
DENV-1/West Pac; DENV-1, 60 mg/kg/day BID, day 1 post-infection
  Survival [%]: 100%
DENV-1/West Pac; DENV-1, 60 mg/kg/day BID, day 2 post-infection
  Survival [%]: 100%
DENV-1/West Pac; DENV-1, 60 mg/kg/day BID, day 3 post-infection
  Survival [%]: 100%
DENV-1/West Pac; DENV-1, 60 mg/kg/day BID, day 4 post-infection
  Survival [%]: 100%
DENV-1/West Pac; DENV-1, 60 mg/kg/day BID, day 5 post-infection
  Survival [%]: 100%
DENV-1/West Pac; DENV-1, 60 mg/kg/day BID, day 6 post-infection
  Survival [%]: 100%
DENV-1/West Pac; 6 mg/kg/day
  Viral RNA copies/mL [Log10]: 6.011 copies/mL [Log10] and 6.0187 copies/mL [Log10] and 7.037 copies/mL [Log10] and 6.709 copies/mL [Log10] and 6.244 copies/mL [Log10]
DENV-1/West Pac; 60 mg/kg/day
  Viral RNA copies/mL [Log10]: 4.624 copies/mL [Log10] and 4.061 copies/mL [Log10] and 4.479 copies/mL [Log10] and 4.465 copies/mL [Log10] and 4.103 copies/mL [Log10]
